Data reported in PubChem BioAssay (NCI).
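In this assay, cells in 96-well plates receive the compound at five concentrations for 48 hours. Endpoints are linearly interpolated between the surrounding concentrations. GI50: concentration for 50% inhibition of growth. At the TGI there is no net growth.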

Legend:
Assay in all cases: DTP human tumour cell line panel, 48 h
SNB-75 CNS = system: SNB-75 CNS
HOP-92 NSCLC = system: HOP-92 NSCLC
SF-268 CNS = system: SF-268 CNS
MCF7 breast = system: MCF7 breast
HT29 colon = system: HT29 colon
OVCAR-5 ovarian = system: OVCAR-5 ovarian
UACC-257 melanoma = system: UACC-257 melanoma
SW-620 colon = system: SW-620 colon
UO-31 renal = system: UO-31 renal
OVCAR-3 ovarian = system: OVCAR-3 ovarian

Structure (SMILES) | TGI (SNB-75 CNS) [µM] | TGI (HOP-92 NSCLC) [µM] | TGI (SF-268 CNS) [µM] | TGI (MCF7 breast) [µM] | TGI (HT29 colon) [µM] | TGI (OVCAR-5 ovarian) [µM] | TGI (UACC-257 melanoma) [µM] | TGI (SW-620 colon) [µM] | TGI (UO-31 renal) [µM] | TGI (OVCAR-3 ovarian) [µM] | GI50 (SNB-75 CNS) [µM] | GI50 (HOP-92 NSCLC) [µM] | GI50 (SF-268 CNS) [µM] | GI50 (MCF7 breast) [µM] | GI50 (HT29 colon) [µM] | GI50 (OVCAR-5 ovarian) [µM] | GI50 (UACC-257 melanoma) [µM] | GI50 (SW-620 colon) [µM] | GI50 (UO-31 renal) [µM] | GI50 (OVCAR-3 ovarian) [µM]
CCOC(=O)CNC(=O)N(CC)C12CC3CC(CC(C3)C1)C2 | 361 | 222 | 317 | 444 | 204 | 369 | 322 | 297 | 358 | 287 | – | – | – | – | – | – | – | – | – | –
CCOP(=O)(OCC)C(c1ccc(F)cc1)N(C(=O)NC(F)(F)F)c1cccc(C(F)(F)F)c1 (configuration not stated) | > 100 | 98.6 | > 100 | > 100 | > 100 | > 100 | > 100 | > 100 | > 100 | > 100 | – | – | – | – | – | – | – | – | – | –
CC(=O)Nc1ccc(/C=C/c2ccc(NC(=O)Nc3ccc(/C=C/c4ccc(NC(C)=O)cc4S(=O)(=O)O)c(S(=O)(=O)O)c3)cc2S(=O)(=O)O)c(S(=O)(=O)O)c1 | > 100 | > 75.6 | > 100 | > 100 | > 100 | > 100 | > 100 | > 100 | > 100 | > 100 | – | – | – | – | – | – | – | – | – | –
COc1ccccc1CNCCCN1C(=O)c2ccc3c4c(ccc(c24)C1=O)C(=O)N(CCCNCCNCCCN)C3=O | 14.8 | 38.8 | 11.6 | 2.22 | 11 | 19.8 | 7.96 | 8.91 | 84.5 | 5.65 | 3.07 | 6.7 | 2.13 | 0.422 | 2.07 | 5.24 | 2.53 | 1.74 | 10.8 | 2.16
CCC(C)NC1=NCC(C)S1 (configuration not stated) | > 100 | > 100 | > 100 | > 100 | > 100 | > 100 | > 100 | > 100 | > 100 | > 100 | – | – | – | – | – | – | – | – | – | –
CC1CC2=C(S(=O)(=O)c3ccccc3)CC(S(=O)(=O)c3ccccc3)(S(=O)(=O)c3ccccc3)CC21 (configuration not stated) | > 100 | – | > 100 | – | > 100 | > 100 | > 100 | > 100 | > 100 | > 100 | – | – | – | – | – | – | – | – | – | –
Clc1ccc(C[P+](c2ccccc2)(c2ccccc2)c2ccccc2)c(Cl)c1 | 7.54 | 5.76 | 24 | – | 10.4 | 18.9 | 7.64 | 21.4 | – | 13.8 | – | – | – | – | – | – | – | – | – | –
CCOC(=O)Cn1c(=O)ccn(COCCO)c1=O | > 100 | > 100 | > 100 | > 100 | > 100 | > 100 | > 100 | > 100 | > 100 | > 100 | – | – | – | – | – | – | – | – | – | –
COc1cc2oc(-c3ccc(O)cc3)c(OC)c(=O)c2c(O)c1OC | > 100 | > 100 | > 100 | > 100 | > 100 | > 100 | > 100 | > 100 | > 100 | > 100 | 45.2 | 43.9 | 79 | 51.4 | 31.1 | > 100 | > 100 | > 100 | 42.6 | > 100
C[C@@H]1Nc2cc(NC(=O)OCCF)nc(N)c2N=C1c1ccccc1 | > 100 | > 100 | – | > 100 | – | > 100 | > 100 | > 100 | 89.1 | < 0.0001 | – | – | – | < 0.0001 | – | – | – | – | – | –
CCOC(=O)c1ccc(N[C@@H]2c3cc4c(cc3C(c3cc(OC)c(O)c(OC)c3)[C@H]3C(=O)OCC32)OCO4)cc1O (some centres not stated) | > 23.2 | 7.38 | 25.3 | > 79.3 | 1.32 | > 100 | > 100 | > 48.2 | 78.1 | 8.75 | – | – | – | – | – | – | – | – | – | –
C/C(=N/NC(N)=S)c1ccc[nH]1 | > 100 | > 100 | > 100 | > 100 | > 100 | > 100 | > 100 | > 100 | > 100 | > 100 | – | – | – | – | – | – | – | – | – | –
COCCCNc1nc(N)c(C#N)c(C#N)c1C#N | > 10 | – | > 10 | > 10 | > 10 | > 10 | – | > 10 | > 10 | > 10 | – | – | – | – | – | – | – | – | – | –
CC1CCCCNC1=S (configuration not stated) | > 10 | > 10 | > 10 | > 10 | > 10 | > 10 | > 10 | > 10 | > 10 | > 10 | – | – | – | – | – | – | – | – | – | –
COc1ccc(S(=O)(=O)c2ccccc2[N+](=O)[O-])cc1 | > 100 | > 100 | > 100 | – | > 100 | > 100 | > 100 | > 100 | > 100 | > 100 | – | – | – | – | – | – | – | – | – | –
